System: 997537-175-T-J1-PDC complex spheroid viability
Assay: Anticancer human tumor 997537-175-T-J1-PDC patient-derived colon adenocarcinoma cell line growth inhibition [GQUAD]
Details: for IC50: curve of first compound; for viability, T/C: stronger effect = lower value
Summary of the method: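 Viability of tumor cells grown as complex spheroids with endothelial and stromal cells, exposed to drug combinations. Top concentration at or near clinical Cmax (else 10 microM), diluted in half-log increments.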

[1] = second compound 0.0316 µM, first compound 0.0316 µM
[2] = second compound 0.0316 µM, first compound 0.1 µM
[3] = second compound 0.0316 µM, first compound 0.316 µM
[4] = second compound 0.0316 µM, first compound 1 µM
[5] = second compound 0.0316 µM, first compound 3.16 µM
[6] = second compound 0.0316 µM, first compound 10 µM
[7] = second compound 0.1 µM, first compound 0.0316 µM
[8] = second compound 0.1 µM, first compound 0.1 µM
[9] = second compound 0.1 µM, first compound 0.316 µM
[10] = second compound 0.1 µM, first compound 1 µM
[11] = second compound 0.1 µM, first compound 3.16 µM
[12] = second compound 0.1 µM, first compound 10 µM
[13] = second compound 0.316 µM, first compound 0.0316 µM
[14] = second compound 0.316 µM, first compound 0.1 µM
[15] = second compound 0.316 µM, first compound 0.316 µM
[16] = second compound 0.316 µM, first compound 1 µM
[17] = second compound 0.316 µM, first compound 3.16 µM
[18] = second compound 0.316 µM, first compound 10 µM
[19] = second compound 1 µM, first compound 0.0316 µM
[20] = second compound 1 µM, first compound 0.1 µM
[21] = second compound 1 µM, first compound 0.316 µM
[22] = second compound 1 µM, first compound 1 µM
[23] = second compound 1 µM, first compound 3.16 µM
[24] = second compound 1 µM, first compound 10 µM
[25] = second compound 3.16 µM, first compound 0.0316 µM
[26] = second compound 3.16 µM, first compound 0.1 µM
[27] = second compound 3.16 µM, first compound 0.316 µM
[28] = second compound 3.16 µM, first compound 1 µM
[29] = second compound 3.16 µM, first compound 3.16 µM
[30] = second compound 3.16 µM, first compound 10 µM
[31] = second compound 10 µM, first compound 0.0316 µM
[32] = second compound 10 µM, first compound 0.1 µM
[33] = second compound 10 µM, first compound 0.316 µM
[34] = second compound 10 µM, first compound 1 µM
[35] = second compound 10 µM, first compound 3.16 µM
[36] = second compound 10 µM, first compound 10 µM
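Further: spheroids exposed to the agents for 7 days.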
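Wherever viability, T/C is given: 100% = DMSO vehicle control viability.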

SMILES: CC(C)n1c(=O)n(C)c2cnc3cc(F)c(-c4ccc(OCCCN5CCCCC5)nc4)cc3c21 + CN(C)c1ccc(Nc2c3ccc(NC(=O)CCN4CCCC4)cc3nc3cc(NC(=O)CCN4CCCC4)ccc23)cc1
- IC50 (second compound 0.0316 µM): > 10 µM
- IC50 (second compound 0.1 µM): > 10 µM
- IC50 (second compound 0.316 µM): > 10 µM
- IC50 (second compound 1 µM): > 10 µM
- IC50 (second compound 3.16 µM): > 10 µM
- IC50 (second compound 10 µM): > 10 µM
- viability, T/C [1]: 104%
- viability, T/C [2]: 91.2%
- viability, T/C [3]: 101%
- viability, T/C [4]: 87%
- viability, T/C [5]: 83%
- viability, T/C [6]: 108%
- viability, T/C [7]: 93.8%
- viability, T/C [8]: 86%
- viability, T/C [9]: 104%
- viability, T/C [10]: 64%
- viability, T/C [11]: 96.2%
- viability, T/C [12]: 98.7%
- viability, T/C [13]: 98.4%
- viability, T/C [14]: 81.9%
- viability, T/C [15]: 95.9%
- viability, T/C [16]: 82.7%
- viability, T/C [17]: 93.7%
- viability, T/C [18]: 95.2%
- viability, T/C [19]: 76%
- viability, T/C [20]: 89.8%
- viability, T/C [21]: 88.9%
- viability, T/C [22]: 93.8%
- viability, T/C [23]: 92%
- viability, T/C [24]: 95%
- viability, T/C [25]: 74.3%
- viability, T/C [26]: 85.4%
- viability, T/C [27]: 91.7%
- viability, T/C [28]: 104%
- viability, T/C [29]: 106%
- viability, T/C [30]: 93.3%
- viability, T/C [31]: 86.6%
- viability, T/C [32]: 71.7%
- viability, T/C [33]: 103%
- viability, T/C [34]: 96.7%
- viability, T/C [35]: 103%
- viability, T/C [36]: 98.4%

SMILES: COc1ncnc(C2CC2)c1-c1ncc2cnn(Cc3ccc(-c4nc(C(F)(F)F)cn4C(C)C)cc3)c2n1 + Cc1cnc(CNC(=O)c2c(=O)c3ccc(N4CCCN(C)CC4)nc3n3c2sc2ccccc23)cn1
- IC50 (second compound 0.0316 µM): > 10 µM
- IC50 (second compound 0.1 µM): > 10 µM
- IC50 (second compound 0.316 µM): > 10 µM
- IC50 (second compound 1 µM): > 10 µM
- IC50 (second compound 3.16 µM): > 10 µM
- IC50 (second compound 10 µM): > 10 µM
- viability, T/C [1]: 118%
- viability, T/C [2]: 78.4%
- viability, T/C [3]: 102%
- viability, T/C [4]: 66.6%
- viability, T/C [5]: 55.3%
- viability, T/C [6]: 96.1%
- viability, T/C [7]: 95.3%
- viability, T/C [8]: 69%
- viability, T/C [9]: 88.5%
- viability, T/C [10]: 92.5%
- viability, T/C [11]: 85%
- viability, T/C [12]: 94.5%
- viability, T/C [13]: 89.1%
- viability, T/C [14]: 86.2%
- viability, T/C [15]: 89.5%
- viability, T/C [16]: 88.5%
- viability, T/C [17]: 91.3%
- viability, T/C [18]: 92.7%
- viability, T/C [19]: 73.8%
- viability, T/C [20]: 85.1%
- viability, T/C [21]: 100%
- viability, T/C [22]: 101%
- viability, T/C [23]: 121%
- viability, T/C [24]: 97.5%
- viability, T/C [25]: 56%
- viability, T/C [26]: 107%
- viability, T/C [27]: 104%
- viability, T/C [28]: 84.7%
- viability, T/C [29]: 106%
- viability, T/C [30]: 97.4%
- viability, T/C [31]: 75.3%
- viability, T/C [32]: 109%
- viability, T/C [33]: 101%
- viability, T/C [34]: 92%
- viability, T/C [35]: 102%
- viability, T/C [36]: 116%

Source: PubChem BioAssay AID2060487 (Molecular Pharmacology Branch, DTP, NCI, 2025)
